System: HBV
Assay: HBsAg levels in serum of AAV/HBV mice (CLIA)
Assay type: in vivo, C57BL/6 mice
Set-up: HBsAg levels in serum (Average ± SD): scale not given here
From the text: The AAV-HBV mouse model is generated by injecting C57BL/6 mice with recombinant adeno-associated virus harboring a replicable HBV genome (AAV-HBV). The rAAV8-1.3 HBV ayw virus stock was purchased from Beijing FivePlus Molecular Medicine Institute (Beijing, China). The animals (male, aged 4-5 weeks upon arrival) were purchased from SLAC Laboratory Animal Co. Ltd (Shanghai, China), acclimatized in the animal facility for 5-7 days, and then injected with 1×10^11 vector genome of AAV-HBV (diluted in 200 μL of PBS) through the tail vein. Persistence expression of HBV genome can be established after three weeks, with high levels of HBV viral markers including HBV DNA, HBsAg, and HBeAg in mouse serum. With stable HBV viremia and competent immune system of the C57BL/6 mice, the AAV-HBV mouse model was used to evaluate the in vivo anti-HBV efficacy of the compounds. The in-life part of the AAV-HBV study was conducted through contracted service at Covance Pharmaceutical Research and Development (Shanghai) Co. Ltd. (Covance Shanghai) and the post-life analysis using the serum was performed internally at Roche Innovation Center Shanghai (RICS).
Seven days before compound treatment, blood samples were collected for serum preparation (˜15 μL), and based on HBV DNA, HBsAg levels in serum and body weight, the AAV-HBV infected animals were stratified into the different treatment groups.
Saline (Group 01) and anti-HBV ASO of CMP ID NO: 15_1 at 1.5 or 7.5 mg/kg were dosed sub subcutaneously once a week during Day 0-49 on Days 0, 7, 14, 21, 28, 35, 42 and 49. TLR7 agonist of CMP ID NO: VI 100 mg/kg was administered by oral gavage once every other day during Day 0-55 (QOD) or once weekly during Day 0-49 on Days 0, 7, 14, 21, 28, 35, 42 and 49 (QW). The animals were weekly bled via retro-orbital sinus for sample collection throughout the study.
Serum HBsAg levels were determined in the serum of infected AAV-HBV mouse using the HBsAg chemoluminescence immunoassay (CLIA) (Autobio diagnostics Co. Ltd., Zhengzhou, China, Cat. no. CL0310-2), according to the manufacturer's protocol. Briefly, 50 μl of serum was transferred to the antibody coated microtiter plate and 50 μl of enzyme conjugate reagent was added. The plate was incubated for 60 min on a shaker at room temperature before all wells were washed six times with washing buffer using an automatic washer. 25 μl of substrate A and then 25 μl of substrate B was added to each well. The plate was incubated for 10 min at RT before luminescence was measured using an Envision luminescence reader (Perkin Elmer). HBsAg is given in the unit IU/ml; where 1 ng HBsAg=1.14 IU.
To evaluate the combination of the anti-HBV ASO and the TLR7 agonist in an in vivo system, a mouse model of chronic HBV infection was used. In the AAV/HBV mouse model described in the Materials and Method a persistent HBV infection is established resulting in expression of viral markers (HBsAg, HBeAg, HBV DNA) detectable in plasma. The effect on these viral markers upon treatment with the anti-HBV ASO of CMP ID NO: 15_1 (table 2, and FIG. 4) dosed at 1.5 mg/kg or 7.5 mg/kg and the TLR7 agonist of CMP ID NO: VI (table 3) dosed with […] every other day (QOD) or once weekly (QW) in monotherapy or in combination has been evaluated.

## CC[C@H](OC(C)=O)[C@@H]1C[C@@H](O)[C@H](n2c(=O)sc3cnc(N)nc32)O1 [CMP ID NO: VI, [(1S)-1-[(2S,4R,5R)-5-(5-amino-2-oxo-thiazolo[4,5-d]pyrimidin-3-yl)-4-hydroxy-tetrahydrofuran-2-yl]propyl] acetate]
D56, 15_1 7.5 mg/kg weekly, VI 100 mg/kg QW, or combination of both
  HBsAg levels in serum (Average ± SD): 2.13 ± 1.00
D63, 15_1 1.5 mg/kg weekly, VI 100 mg/kg QOD, or combination of both
  HBsAg levels in serum (Average ± SD): 1.61 ± 0.96
D63, 15_1 1.5 mg/kg weekly, VI 100 mg/kg QW, or combination of both
  HBsAg levels in serum (Average ± SD): 2.43 ± 1.14
D63, 15_1 7.5 mg/kg weekly, VI 100 mg/kg QOD, or combination of both
  HBsAg levels in serum (Average ± SD): 1.61 ± 0.96
D63, 15_1 7.5 mg/kg weekly, VI 100 mg/kg QW, or combination of both
  HBsAg levels in serum (Average ± SD): 2.43 ± 1.14
D70, 15_1 1.5 mg/kg weekly, VI 100 mg/kg QOD, or combination of both
  HBsAg levels in serum (Average ± SD): 1.9 ± 1.23
D70, 15_1 1.5 mg/kg weekly, VI 100 mg/kg QW, or combination of both
  HBsAg levels in serum (Average ± SD): 2.48 ± 1.23
D70, 15_1 7.5 mg/kg weekly, VI 100 mg/kg QOD, or combination of both
  HBsAg levels in serum (Average ± SD): 1.90 ± 1.23
D70, 15_1 7.5 mg/kg weekly, VI 100 mg/kg QW, or combination of both
  HBsAg levels in serum (Average ± SD): 2.48 ± 1.23
D77, 15_1 1.5 mg/kg weekly, VI 100 mg/kg QOD, or combination of both
  HBsAg levels in serum (Average ± SD): 1.91 ± 1.18
D77, 15_1 1.5 mg/kg weekly, VI 100 mg/kg QW, or combination of both
  HBsAg levels in serum (Average ± SD): 2.41 ± 1.16
D77, 15_1 7.5 mg/kg weekly, VI 100 mg/kg QOD, or combination of both
  HBsAg levels in serum (Average ± SD): 1.91 ± 1.18
D77, 15_1 7.5 mg/kg weekly, VI 100 mg/kg QW, or combination of both
  HBsAg levels in serum (Average ± SD): 2.41 ± 1.16
D84, 15_1 1.5 mg/kg weekly, VI 100 mg/kg QOD, or combination of both
  HBsAg levels in serum (Average ± SD): 2.25 ± 1.16
D84, 15_1 1.5 mg/kg weekly, VI 100 mg/kg QW, or combination of both
  HBsAg levels in serum (Average ± SD): 2.66 ± 1.15
D84, 15_1 7.5 mg/kg weekly, VI 100 mg/kg QOD, or combination of both
  HBsAg levels in serum (Average ± SD): 2.25 ± 1.16
D84, 15_1 7.5 mg/kg weekly, VI 100 mg/kg QW, or combination of both
  HBsAg levels in serum (Average ± SD): 2.66 ± 1.15
D91, 15_1 1.5 mg/kg weekly, VI 100 mg/kg QOD, or combination of both
  HBsAg levels in serum (Average ± SD): 2.05 ± 1.35
D91, 15_1 1.5 mg/kg weekly, VI 100 mg/kg QW, or combination of both
  HBsAg levels in serum (Average ± SD): 2.66 ± 1.44
D91, 15_1 7.5 mg/kg weekly, VI 100 mg/kg QOD, or combination of both
  HBsAg levels in serum (Average ± SD): 2.05 ± 1.35
D91, 15_1 7.5 mg/kg weekly, VI 100 mg/kg QW, or combination of both
  HBsAg levels in serum (Average ± SD): 2.66 ± 1.44
D98, 15_1 1.5 mg/kg weekly, VI 100 mg/kg QOD, or combination of both
  HBsAg levels in serum (Average ± SD): 2.36 ± 1.26
D98, 15_1 1.5 mg/kg weekly, VI 100 mg/kg QW, or combination of both
  HBsAg levels in serum (Average ± SD): 2.83 ± 1.16
D98, 15_1 7.5 mg/kg weekly, VI 100 mg/kg QOD, or combination of both
  HBsAg levels in serum (Average ± SD): 2.36 ± 1.26
D98, 15_1 7.5 mg/kg weekly, VI 100 mg/kg QW, or combination of both
  HBsAg levels in serum (Average ± SD): 2.83 ± 1.16
D105, 15_1 1.5 mg/kg weekly, VI 100 mg/kg QOD, or combination of both
  HBsAg levels in serum (Average ± SD): 2.41 ± 1.18
D105, 15_1 1.5 mg/kg weekly, VI 100 mg/kg QW, or combination of both
  HBsAg levels in serum (Average ± SD): 2.81 ± 1.1
D105, 15_1 7.5 mg/kg weekly, VI 100 mg/kg QOD, or combination of both
  HBsAg levels in serum (Average ± SD): 2.41 ± 1.18
D105, 15_1 7.5 mg/kg weekly, VI 100 mg/kg QW, or combination of both
  HBsAg levels in serum (Average ± SD): 2.81 ± 1.10
D111, 15_1 1.5 mg/kg weekly, VI 100 mg/kg QOD, or combination of both
  HBsAg levels in serum (Average ± SD): 2.69 ± 1.38
D111, 15_1 1.5 mg/kg weekly, VI 100 mg/kg QW, or combination of both
  HBsAg levels in serum (Average ± SD): 3.1 ± 1.12
D111, 15_1 7.5 mg/kg weekly, VI 100 mg/kg QOD, or combination of both
  HBsAg levels in serum (Average ± SD): 2.69 ± 1.38
D111, 15_1 7.5 mg/kg weekly, VI 100 mg/kg QW, or combination of both
  HBsAg levels in serum (Average ± SD): 3.10 ± 1.12
TLR7 agonist alone, FIG. 10A
  initial rate of reduction in HBsAg: slow initial rate of reduction in HBsAg
TLR7 agonist alone, FIG. 10A (100 mg/kg QOD)
  time of lowest HBsAg: 42 days
TLR7 agonist at any of the doses
  suppression of HBsAg: not capable of suppressing HBsAg to a level below the detection limit

— patent US20230123601A1, “PHARMACEUTICAL COMBINATION OF ANTIVIRAL AGENTS TARGETING HBV AND/OR AN IMMUNE MODULATOR FOR TREATMENT OF HBV” (priority 2019, published 2023)
